From the NIST ThermoML archive (doi:10.1016/j.tca.2011.10.009)
Numbers after ± are expanded uncertainties.

What was measured:
[1] = Liquid; for mass density: Vibrating tube method
[2] = mn = molality of the nth substance listed, in mol/kg; details: 101 kPa, Liquid; for viscosity: Capillary tube (Ostwald / Ubbelohde) method; for mass density: Vibrating tube method
[3] = refractive index (Na D-line) (dimensionless); mn = molality of the nth substance listed, in mol/kg; details: 298.15 K, 101 kPa, Liquid, Standard Abbe refractometry

For `CCCCCCn1cc[n+](C)c1.[Br-]` [3-hexyl-1-methyl-1H-imidazolium bromide], the mass density ([1]; 298.15 K, 101.33 kPa) was 1222.1 ± 0.5 kg/m3.
`CCCCCCn1cc[n+](C)c1.[Br-]` [3-hexyl-1-methyl-1H-imidazolium bromide] + CN(C)C=O showed a viscosity ([2]; 298.15 K, m1 = 2.17e-05) of 0.897 ± 0.015 mPa·s, a viscosity ([2]; 298.15 K, m1 = 4.17e-05) of 0.913 ± 0.015 mPa·s and a viscosity ([2]; 298.15 K, m1 = 6.26e-05) of 0.929 ± 0.015 mPa·s. It also gave a viscosity ([2]; 298.15 K, m1 = 7.78e-05) of 0.938 ± 0.015 mPa·s, a viscosity ([2]; 298.15 K, m1 = 9.98e-05) of 0.952 ± 0.015 mPa·s and a viscosity ([2]; 298.15 K, m1 = 0.0001171) of 0.969 ± 0.015 mPa·s. It also gave a viscosity ([2]; 298.15 K, m1 = 0.0001363) of 0.985 ± 0.016 mPa·s, a viscosity ([2]; 298.15 K, m1 = 0.0001507) of 0.997 ± 0.016 mPa·s and a viscosity ([2]; 298.15 K, m1 = 0.0001787) of 1.014 ± 0.016 mPa·s. For the same compound, the viscosity ([2]; 298.15 K, m1 = 0.0001961) was 1.022 ± 0.016 mPa·s, the mass density ([2]; 298.15 K, m1 = 0.0233) was 945.6 ± 0.82 kg/m3 and the mass density ([2]; 298.15 K, m1 = 0.0435) was 946.89 ± 0.83 kg/m3. It also gave a mass density ([2]; 298.15 K, m1 = 0.0658) of 948.29 ± 0.83 kg/m3, a mass density ([2]; 298.15 K, m1 = 0.0824) of 949.31 ± 0.83 kg/m3 and a mass density ([2]; 298.15 K, m1 = 0.1049) of 950.67 ± 0.83 kg/m3. For the same compound, the mass density ([2]; 298.15 K, m1 = 0.1228) was 951.73 ± 0.83 kg/m3, the mass density ([2]; 298.15 K, m1 = 0.1428) was 952.91 ± 0.83 kg/m3 and the mass density ([2]; 298.15 K, m1 = 0.1583) was 953.83 ± 0.83 kg/m3. The mass density ([2]; 298.15 K, m1 = 0.1869) was 955.45 ± 0.84 kg/m3, the mass density ([2]; 298.15 K, m1 = 0.2051) was 956.47 ± 0.84 kg/m3 and the mass density ([2]; 303.15 K, m1 = 0.0233) was 942.35 ± 0.82 kg/m3. It also gave a mass density ([2]; 303.15 K, m1 = 0.0435) of 943.65 ± 0.82 kg/m3, a mass density ([2]; 303.15 K, m1 = 0.0658) of 945.07 ± 0.82 kg/m3 and a mass density ([2]; 303.15 K, m1 = 0.0824) of 946.1 ± 0.82 kg/m3. It also gave a mass density ([2]; 303.15 K, m1 = 0.1049) of 947.48 ± 0.83 kg/m3, a mass density ([2]; 303.15 K, m1 = 0.1228) of 948.58 ± 0.83 kg/m3 and a mass density ([2]; 303.15 K, m1 = 0.1428) of 949.77 ± 0.83 kg/m3. The mass density ([2]; 303.15 K, m1 = 0.1583) was 950.67 ± 0.83 kg/m3, the mass density ([2]; 303.15 K, m1 = 0.1869) was 952.33 ± 0.83 kg/m3 and the mass density ([2]; 303.15 K, m1 = 0.2051) was 953.36 ± 0.83 kg/m3. For the same compound, the mass density ([2]; 308.15 K, m1 = 0.0233) was 937.3 ± 0.81 kg/m3, the mass density ([2]; 308.15 K, m1 = 0.0435) was 938.59 ± 0.82 kg/m3 and the mass density ([2]; 308.15 K, m1 = 0.0658) was 939.99 ± 0.82 kg/m3. The mass density ([2]; 308.15 K, m1 = 0.0824) was 941.01 ± 0.82 kg/m3, the mass density ([2]; 308.15 K, m1 = 0.1049) was 942.38 ± 0.82 kg/m3 and the mass density ([2]; 308.15 K, m1 = 0.1228) was 943.44 ± 0.82 kg/m3. It also gave a mass density ([2]; 308.15 K, m1 = 0.1428) of 944.62 ± 0.82 kg/m3, a mass density ([2]; 308.15 K, m1 = 0.1583) of 945.53 ± 0.82 kg/m3 and a mass density ([2]; 308.15 K, m1 = 0.1869) of 947.16 ± 0.83 kg/m3. For the same compound, the mass density ([2]; 308.15 K, m1 = 0.2051) was 948.17 ± 0.83 kg/m3, the mass density ([2]; 313.15 K, m1 = 0.0233) was 932.21 ± 0.81 kg/m3 and the mass density ([2]; 313.15 K, m1 = 0.0435) was 933.56 ± 0.81 kg/m3. For the same compound, the mass density ([2]; 313.15 K, m1 = 0.0658) was 935.02 ± 0.81 kg/m3, the mass density ([2]; 313.15 K, m1 = 0.0824) was 936.08 ± 0.81 kg/m3 and the mass density ([2]; 313.15 K, m1 = 0.1049) was 937.52 ± 0.81 kg/m3. It also gave a mass density ([2]; 313.15 K, m1 = 0.1228) of 938.65 ± 0.82 kg/m3, a mass density ([2]; 313.15 K, m1 = 0.1428) of 939.88 ± 0.82 kg/m3 and a mass density ([2]; 313.15 K, m1 = 0.1583) of 940.81 ± 0.82 kg/m3. For the same compound, the mass density ([2]; 313.15 K, m1 = 0.1869) was 942.51 ± 0.82 kg/m3, the mass density ([2]; 313.15 K, m1 = 0.2051) was 943.57 ± 0.82 kg/m3 and the refractive index ([3]; m1 = 0.0233) was 1.4303 ± 0.0005. It also gave a refractive index ([3]; m1 = 0.0435) of 1.4306 ± 0.0005, a refractive index ([3]; m1 = 0.0658) of 1.4311 ± 0.0005 and a refractive index ([3]; m1 = 0.0824) of 1.4316 ± 0.0005. The refractive index ([3]; m1 = 0.1049) was 1.432 ± 0.0005, the refractive index ([3]; m1 = 0.1228) was 1.4325 ± 0.0005 and the refractive index ([3]; m1 = 0.1428) was 1.433 ± 0.0005. It also gave a refractive index ([3]; m1 = 0.1583) of 1.4336 ± 0.0005, a refractive index ([3]; m1 = 0.1869) of 1.4344 ± 0.0005 and a refractive index ([3]; m1 = 0.2051) of 1.4347 ± 0.0005.
Compound `C(=NCCN=Cc1ccccn1)c1ccccn1` [N,N'-bis(2-pyridinylmethylene)-1,2-ethanediamine] + CN(C)C=O has a viscosity ([2]; 298.15 K, m1 = 0.0402) of 0.878 ± 0.015 mPa·s, a viscosity ([2]; 298.15 K, m1 = 0.0764) of 0.893 ± 0.015 mPa·s and a viscosity ([2]; 298.15 K, m1 = 0.1208) of 0.909 ± 0.015 mPa·s. For the same compound, the viscosity ([2]; 298.15 K, m1 = 0.1644) was 0.926 ± 0.015 mPa·s, the mass density ([2]; 298.15 K, m1 = 0.0402) was 945.46 ± 0.82 kg/m3 and the mass density ([2]; 298.15 K, m1 = 0.0764) was 946.76 ± 0.83 kg/m3. For the same compound, the mass density ([2]; 298.15 K, m1 = 0.1208) was 948.07 ± 0.83 kg/m3, the mass density ([2]; 298.15 K, m1 = 0.1644) was 949.29 ± 0.83 kg/m3 and the mass density ([2]; 303.15 K, m1 = 0.0402) was 941.5 ± 0.82 kg/m3. The mass density ([2]; 303.15 K, m1 = 0.0764) was 942.72 ± 0.82 kg/m3, the mass density ([2]; 303.15 K, m1 = 0.1208) was 943.95 ± 0.82 kg/m3 and the mass density ([2]; 303.15 K, m1 = 0.1644) was 944.72 ± 0.82 kg/m3. It also gave a mass density ([2]; 308.15 K, m1 = 0.0402) of 936.79 ± 0.81 kg/m3, a mass density ([2]; 308.15 K, m1 = 0.0764) of 937.92 ± 0.81 kg/m3 and a mass density ([2]; 308.15 K, m1 = 0.1208) of 939.19 ± 0.82 kg/m3. For the same compound, the mass density ([2]; 308.15 K, m1 = 0.1644) was 940.14 ± 0.82 kg/m3, the mass density ([2]; 313.15 K, m1 = 0.0402) was 931.89 ± 0.81 kg/m3 and the mass density ([2]; 313.15 K, m1 = 0.0764) was 933.39 ± 0.81 kg/m3. It also gave a mass density ([2]; 313.15 K, m1 = 0.1208) of 934.92 ± 0.81 kg/m3 and a mass density ([2]; 313.15 K, m1 = 0.1644) of 936.16 ± 0.81 kg/m3.
For `CN(C)C=O` [dimethylformamide], the viscosity ([1]; 298.15 K, 101 kPa, Capillary tube (Ostwald / Ubbelohde) method) was 0.861 ± 0.014 mPa·s, the mass density ([1]; 298.15 K, 101 kPa) was 944.09 ± 0.82 kg/m3 and the mass density ([1]; 303.15 K, 101 kPa) was 940.82 ± 0.82 kg/m3. It also gave a mass density ([1]; 308.15 K, 101 kPa) of 935.79 ± 0.81 kg/m3 and a mass density ([1]; 313.15 K, 101 kPa) of 930.63 ± 0.81 kg/m3.
